Results as given in article PMC11992225, “Antibacterial compounds against non-growing and intracellular bacteria” (npj Antimicrobials and Resistance, 2025).
Values joined by “and” are separate entries in the source; they are usually repeats but may differ in a detail not shown here. Equal values may be shown once.

Test system: non-growing P. aeruginosa DSM1117
Assay: Dose-dependent killing analysis (CFU spot-plating) of stationary-phase P. aeruginosa
Format: cell-based, Pseudomonas aeruginosa
Conditions: for reduction of bacterial counts, stationary phase P. aeruginosa: at 0.5 µM; for log10(CFU/ml) after treatment / killing, average Δlog10(CFU/ml) / log10(CFU/ml) of treated nongrowing bacteria (single replicates) / Killing: average Δlog10(CFU/ml) / log10(CFU/ml) after treatment, single replicates: P. aeruginosa; for log10(CFU/ml) after treatment: individual replicates; for log10(CFU/ml) of treated nongrowing bacteria (single replicates): before treatment 8.887; for Killing: average Δlog10(CFU/ml): vs 8.887 before treatment
Protocol: The cultures were grown and treated for 24 h in 1:4 CA-MHB (pH 7.4).
For survival analysis, bacteria were cultivated as described for the dose–response dilution-regrowth assay. Assays with UPEC were conducted at the CBCS screening facility using 96-well plates with a 200 μl sample volume, and compounds were dispensed using the Echo® (Labcyte) system. P. aeruginosa and S. aureus samples were treated according to the protocol used for the dilution-regrowth experiments. Treated samples were serially diluted 10-fold in PBS, and 10 μl drops were spot-plated onto rectangular LB agar plates using either a Beckman NXP robot (for UPEC) or an Integra VIAFLO96 electronic pipette (for P. aeruginosa and S. aureus). The LB agar plates were incubated overnight at 37 °C and scanned. Colonies were counted at the spots of the lowest dilution where individual colonies could be accurately distinguished. Each colony was manually marked on a separate image layer using the GNU Image Manipulation Program, and counted using NIST’s Integrated Colony Enumerator (NICE 1.4) software. The experiments were performed in three biological replicates.

[1] = at 2.5 µM, 1:4 CA-MHB pH 7.4, 24 h treatment
[2] = concentration 0.1, vs CFU before treatment
[3] = concentration 0.5, vs CFU before treatment
[4] = concentration 2.5, vs CFU before treatment
[5] = concentration 10, vs CFU before treatment

SMILES | reduction of bacterial counts, stationary phase P. aeruginosa (24 h treatment) | reduction of bacterial counts, non-growing P. aeruginosa [1] | log10(CFU/ml) after treatment (concentration 0.1) | killing, average Δlog10(CFU/ml) [2] | log10(CFU/ml) after treatment (concentration 0.5) | killing, average Δlog10(CFU/ml) [3] | log10(CFU/ml) after treatment (concentration 2.5) | killing, average Δlog10(CFU/ml) [4] | killing, average Δlog10(CFU/ml) (drug concentration 10) | killing, average Δlog10(CFU/ml) (drug concentration 0.1) | log10(CFU/ml) of treated nongrowing bacteria (single replicates) (drug concentration 0.1) | killing, average Δlog10(CFU/ml) (drug concentration 0.5) | log10(CFU/ml) of treated nongrowing bacteria (single replicates) (drug concentration 0.5) | log10(CFU/ml) after treatment (concentration 10) | killing, average Δlog10(CFU/ml) [5] | further results
CC[C@H]1OC(=O)[C@@](C)(F)C(=O)[C@H](C)[C@@H](O[C@@H]2O[C@H](C)C[C@H](N(C)C)[C@H]2O)[C@](C)(OC)C[C@@H](C)C(=O)[C@H](C)[C@H]2N(CCCCn3cc(-c4cccc(N)c4)nn3)C(=O)O[C@]12C [Solithromycin] | more than four | more than four | – | – | – | – | – | – | – | – | – | – | – | – | – | killing of non-growing P. aeruginosa (at 2.5 µM, 24 h treatment): > 4 log10; reduction of bacterial counts, non-growing P. aeruginosa (at 10 µM, 24 h treatment): more than four
CCCCCCCCN=c1ccn(CCCCCCCCCCn2ccc(=NCCCCCCCC)cc2)cc1 [Octenidine] | – | – | 10.204 log10(CFU/ml) and 9.447 log10(CFU/ml) and 9.415 log10(CFU/ml) | -0.305 log10(CFU/ml) | 9.146 log10(CFU/ml) and 9.322 log10(CFU/ml) and 9.255 log10(CFU/ml) | 0.143 log10(CFU/ml) | 9.230 log10(CFU/ml) (2×) and 9.322 log10(CFU/ml) | 0.123 log10(CFU/ml) | 0.517 log10(CFU/ml) | – | – | – | – | – | – | –
NC1CCN(c2nc3c(cc2F)c(=O)c(C(=O)O)cn3-c2ccc(F)cc2F)C1 (centres unmarked) [Tosufloxacin] | – | – | – | – | – | – | – | – | 4.787 log10(CFU/ml) | 0.209 log10(CFU/ml) | 8.477 log10(CFU/ml) and 8.954 log10(CFU/ml) and 8.602 log10(CFU/ml) | 1.194 log10(CFU/ml) | 7.477 log10(CFU/ml) and 7.903 log10(CFU/ml) and 7.699 log10(CFU/ml) | – | – | killing, average Δlog10(CFU/ml) (drug concentration 2.5): 3.719 log10(CFU/ml); log10(CFU/ml) of treated nongrowing bacteria (single replicates) (drug concentration 2.5): 5.602 log10(CFU/ml) (2×) and 4.301 log10(CFU/ml); log10(CFU/ml) of treated nongrowing bacteria (single replicates) (drug concentration 10): =<4 log10(CFU/ml) (2×) and 4.301 log10(CFU/ml)
O=C(O)c1cn(C2CC2)c2cc(N3CCNCC3)c(F)cc2c1=O [Ciprofloxacin] | – | more than four | – | – | – | – | – | – | – | – | – | – | – | – | – | –
CO/N=C1\CN(c2nc3c(cc2F)c(=O)c(C(=O)O)cn3C2CC2)CC1CN (centres unmarked) [Gemifloxacin] | – | more than four | 8.477 log10(CFU/ml) and 8.778 log10(CFU/ml) and 8.114 log10(CFU/ml) | 0.431 log10(CFU/ml) | 7.699 log10(CFU/ml) (2×) and 7.477 log10(CFU/ml) | 1.262 log10(CFU/ml) | =<4 log10(CFU/ml) (2×) and 4.954 log10(CFU/ml) | 4.569 log10(CFU/ml) | – | – | – | – | – | =<4 log10(CFU/ml) (2×) and 4.477 log10(CFU/ml) | 4.728 log10(CFU/ml) | –
O=C(O)c1cn(-c2ccc(F)cc2)c2cc(N3CCNCC3)c(F)cc2c1=O [Sarafloxacin] | – | – | – | – | – | – | – | – | 4.887 log10(CFU/ml) | 0.295 log10(CFU/ml) | 8.699 log10(CFU/ml) and 8.903 log10(CFU/ml) and 8.176 log10(CFU/ml) | 1.719 log10(CFU/ml) | 7.301 log10(CFU/ml) and 6.602 log10(CFU/ml) and 7.602 log10(CFU/ml) | – | – | killing, average Δlog10(CFU/ml) (drug concentration 2.5): 3.802 log10(CFU/ml); log10(CFU/ml) of treated nongrowing bacteria (single replicates) (drug concentration 2.5): 5.301 log10(CFU/ml) and 5.176 log10(CFU/ml) and 4.778 log10(CFU/ml); log10(CFU/ml) of treated nongrowing bacteria (single replicates) (drug concentration 10): =<4 log10(CFU/ml)
Cc1oc(=O)oc1CN1CCN(c2cc3c(cc2F)c(=O)c(C(=O)O)c2n3C(C)S2)CC1 (centres unmarked) [Prulifloxacin] | more than four | more than four | – | – | – | – | =<4 log10(CFU/ml) (2×) and 4.602 log10(CFU/ml) | 4.687 log10(CFU/ml) | – | 0.555 log10(CFU/ml) | 8.477 log10(CFU/ml) (2×) and 8.041 log10(CFU/ml) | 3.168 log10(CFU/ml) | 5.778 log10(CFU/ml) and 6.602 log10(CFU/ml) and 4.778 log10(CFU/ml) | =<4 log10(CFU/ml) | 4.887 log10(CFU/ml) | –
CO[C@H]1/C=C/O[C@@]2(C)Oc3c(C)c(O)c4c(c3C2=O)C2=NC3(CCN(CC(C)C)CC3)NC2=C(NC(=O)/C(C)=C\C=C\[C@H](C)[C@H](O)[C@@H](C)[C@@H](O)[C@@H](C)[C@H](OC(C)=O)[C@@H]1C)C4=O [Rifabutin] | – | more than four | – | – | – | – | – | – | – | – | – | – | – | – | – | Killing: average Δlog10(CFU/ml) (concentration 0.1): 0.484 log10(CFU/ml); log10(CFU/ml) after treatment, single replicates (concentration 0.25): 8.477 log10(CFU/ml) and 8.954 log10(CFU/ml) and 7.778 log10(CFU/ml); Killing: average Δlog10(CFU/ml) (concentration 0.5): 0.158 log10(CFU/ml); Killing: average Δlog10(CFU/ml) (concentration 2.5): 4.469 log10(CFU/ml); log10(CFU/ml) after treatment, single replicates (printed on the line of concentration 1): 8.301 log10(CFU/ml) and 9.041 log10(CFU/ml) and 8.845 log10(CFU/ml); log10(CFU/ml) after treatment, single replicates (printed on the line of concentration 5): 4.477 log10(CFU/ml) and 4.778 log10(CFU/ml) and =<4 log10(CFU/ml); killing of non-growing P. aeruginosa (at 2.5 µM, 24 h treatment): > 4 log10
CC1Sc2c(C(=O)O)c(=O)c3cc(F)c(N4CCNCC4)cc3n21 (centres unmarked) [Ulifloxacin] | more than four | more than four | – | – | – | – | – | – | – | – | – | – | – | – | – | –
N[C@@H]1CCCCN(c2c(F)cc3c(=O)c(C(=O)O)cn(C4CC4)c3c2Cl)C1 [Besifloxacin] | – | more than four | 8.000 log10(CFU/ml) and 8.602 log10(CFU/ml) and 8.204 log10(CFU/ml) | 0.619 log10(CFU/ml) | 7.845 log10(CFU/ml) and 7.699 log10(CFU/ml) (2×) | 1.140 log10(CFU/ml) | 5.000 log10(CFU/ml) (2×) and 4.699 log10(CFU/ml) | 3.988 log10(CFU/ml) | – | – | – | – | – | =<4 log10(CFU/ml) (2×) and 4.301 log10(CFU/ml) | 4.787 log10(CFU/ml) | –
COc1c(N2C[C@@H]3CCCN[C@@H]3C2)c(F)cc2c(=O)c(C(=O)O)cn(C3CC3)c12 [Moxifloxacin] | – | – | 8.699 log10(CFU/ml) and 8.778 log10(CFU/ml) and 8.477 log10(CFU/ml) | 0.236 log10(CFU/ml) | 8.301 log10(CFU/ml) and 7.778 log10(CFU/ml) (2×) | 0.935 log10(CFU/ml) | 5.845 log10(CFU/ml) and 6.301 log10(CFU/ml) and 4.699 log10(CFU/ml) | 3.272 log10(CFU/ml) | – | – | – | – | – | =<4 log10(CFU/ml) (2×) and 4.477 log10(CFU/ml) | 4.728 log10(CFU/ml) | –
NC1CCN(c2c(F)cc3c(=O)c(C(=O)O)cn(C4CC4)c3c2Cl)C1 (centres unmarked) [Clinafloxacin] | more than four | more than four | – | – | – | – | – | – | – | – | – | – | – | – | – | –
N[C@@H]1CN(c2c(F)cc3c(=O)c(C(=O)O)cn([C@@H]4C[C@@H]4F)c3c2Cl)CC12CC2 [Sitafloxacin] | more than four | more than four | – | – | – | – | – | – | 4.353 log10(CFU/ml) | 1.534 log10(CFU/ml) | 7.699 log10(CFU/ml) and 7.362 log10(CFU/ml) and 7.000 log10(CFU/ml) | 3.935 log10(CFU/ml) | 5.954 log10(CFU/ml) and 4.903 log10(CFU/ml) and =<4 log10(CFU/ml) | – | – | killing, average Δlog10(CFU/ml) (drug concentration 2.5): 4.787 log10(CFU/ml); log10(CFU/ml) of treated nongrowing bacteria (single replicates) (drug concentration 2.5): =<4 log10(CFU/ml) (2×) and 4.301 log10(CFU/ml); log10(CFU/ml) of treated nongrowing bacteria (single replicates) (drug concentration 10): 5.000 log10(CFU/ml) and 4.602 log10(CFU/ml) and =<4 log10(CFU/ml)
